We go through 15 molecules from ChEMBL document CHEMBL2413034, “Novel β-dicarbonyl derivatives as inhibitors of aminopeptidase N (APN)” (Bioorg Med Chem Lett, 2013).

Calls of active or inactive are those of the source. The calls are words filed in the database; no cut-off is given here. A value given as a limit tells only on which side of the number the result lay.

One assay has as its target T1, Aminopeptidase N (Sus scrofa, UniProt P15145).
T1 sequence (P15145 whole entry): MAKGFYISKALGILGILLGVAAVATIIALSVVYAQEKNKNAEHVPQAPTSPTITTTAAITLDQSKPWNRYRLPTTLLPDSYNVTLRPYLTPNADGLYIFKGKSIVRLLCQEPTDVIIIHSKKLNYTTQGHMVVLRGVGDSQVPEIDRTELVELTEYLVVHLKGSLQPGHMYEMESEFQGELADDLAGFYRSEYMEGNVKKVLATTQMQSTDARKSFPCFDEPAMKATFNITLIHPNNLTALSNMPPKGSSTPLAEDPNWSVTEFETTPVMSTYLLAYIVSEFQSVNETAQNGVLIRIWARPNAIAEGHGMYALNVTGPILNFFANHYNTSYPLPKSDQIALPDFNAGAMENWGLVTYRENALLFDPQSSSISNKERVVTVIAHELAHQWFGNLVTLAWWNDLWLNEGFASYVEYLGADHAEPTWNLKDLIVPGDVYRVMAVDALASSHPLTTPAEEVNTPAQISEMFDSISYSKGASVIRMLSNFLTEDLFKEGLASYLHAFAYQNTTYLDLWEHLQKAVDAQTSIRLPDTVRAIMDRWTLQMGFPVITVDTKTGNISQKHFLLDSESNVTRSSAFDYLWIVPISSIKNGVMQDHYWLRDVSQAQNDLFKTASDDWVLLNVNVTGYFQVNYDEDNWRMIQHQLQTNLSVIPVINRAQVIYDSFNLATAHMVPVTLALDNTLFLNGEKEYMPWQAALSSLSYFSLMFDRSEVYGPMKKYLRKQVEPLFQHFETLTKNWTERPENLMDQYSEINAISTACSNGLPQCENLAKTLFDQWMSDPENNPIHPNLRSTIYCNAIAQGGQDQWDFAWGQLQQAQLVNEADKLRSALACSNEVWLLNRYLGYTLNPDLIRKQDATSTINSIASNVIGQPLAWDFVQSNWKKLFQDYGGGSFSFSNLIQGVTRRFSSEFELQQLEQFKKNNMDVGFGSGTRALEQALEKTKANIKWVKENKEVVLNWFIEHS
The assay is described as follows: Inhibition of pig microsomal aminopeptidase N using L-leu-p-nitroanilide as substrate incubated for 5 mins prior to substrate addition measured after 30 mins by spectrophotometric analysis.

The target in assay [1] is Histone deacetylase 1/3/5/8 (Homo sapiens, UniProt Q13547+O15379+Q9UQL6+Q9BY41). Put plainly: Inhibition of HDAC1/HDAC3/HDAC5/HDAC8 in human HeLa nuclear extract using Boc-Lys(acetyl)-AMC as substrate incubated for 5 mins prior to substrate measured after 30 mins by spectrophotometric analysis. The class given is protein assay.
Assay [2] in a line: Metal chelating activity assessed as affinity to Zn2+ by spectrophotometry. It is filed as functional.

Consider `N[C@H](Cc1ccccc1)C(=O)CC(=O)N[C@@H](Cc1ccccc1)C(=O)O`, for which the IC50 against Aminopeptidase N was 0.00473 mM; in assay [1], above 1 mM.
For `COC(=O)[C@H](CC(C)C)NC(=O)CC(=O)[C@@H](Cc1ccccc1)NC(=O)OC(C)(C)C` the same measures were above 1 mM and above 1 mM.
For the molecule `COC(=O)CC(=O)[C@H](N)Cc1ccccc1`, the results for the IC50 (against Aminopeptidase N; in assay [1]) were 0.984 mM and above 1 mM, respectively.
For `N[C@H](Cc1ccccc1)C(=O)CC(=O)N[C@H](C(=O)O)c1ccccc1`, the IC50 against Aminopeptidase N was 0.00382 mM; in assay [1], above 1 mM.
As to `CC(C)(C)OC(=O)N[C@H](Cc1ccccc1)C(=O)CC(=O)OCc1ccccc1`, the IC50 (on Aminopeptidase N; in assay [1]) was above 1 mM each time.
For `COC(=O)[C@H](Cc1ccccc1)NC(=O)CC(=O)[C@@H](Cc1ccccc1)NC(=O)OC(C)(C)C`, the IC50 (against Aminopeptidase N; in assay [1]) was above 1 mM throughout.
As to `COC(=O)CC(=O)[C@@H](Cc1ccccc1)NC(=O)OC(C)(C)C`, the IC50 (against Aminopeptidase N; in assay [1]) was above 1 mM each time.
For the molecule `COC(=O)[C@H](CC(C)C)NC(=O)CC(=O)[C@H](N)Cc1ccccc1`, the values for the IC50 (against Aminopeptidase N; in assay [1]) were 0.00504 mM and above 1 mM, respectively.
For `COC(=O)[C@H](Cc1ccccc1)NC(=O)CC(=O)[C@H](N)Cc1ccccc1`, the IC50 on Aminopeptidase N was 0.00702 mM; in assay [1] it was above 1 mM.
For `N[C@H](Cc1ccccc1)C(=O)CC(=O)OCc1ccccc1`, the values for the IC50 (against Aminopeptidase N; in assay [1]) were 0.711 mM and above 1 mM, respectively.
Turning to `CC(C)C[C@H](NC(=O)CC(=O)[C@H](N)Cc1ccccc1)C(=O)O`, the figures for the IC50 (against Aminopeptidase N; in assay [1]) were 0.00141 mM and above 1 mM, respectively. In addition, the outcome in assay [2] was Active.
As to `COc1cc(/C=C/C(=O)CC(=O)/C=C/c2ccc(O)c(OC)c2)ccc1O` [CURCUMIN], the IC50 on Aminopeptidase N was determined as 0.0155 mM.
In the case of `COC(=O)[C@@H](NC(=O)CC(=O)[C@@H](Cc1ccccc1)NC(=O)OC(C)(C)C)c1ccccc1`, the IC50 (on Aminopeptidase N; in assay [1]) was above 1 mM in each case.
Consider `CC(C)C[C@H](NC(=O)[C@@H](O)[C@H](N)Cc1ccccc1)C(=O)O` [UBENIMEX], for which the IC50 in assay [1] is above 1 mM.
Turning to `COC(=O)[C@@H](NC(=O)CC(=O)[C@H](N)Cc1ccccc1)c1ccccc1`, the figures for the concentration for half-maximal inhibition (IC50) (on Aminopeptidase N; in assay [1]) were 0.00603 mM and above 1 mM, respectively.

For orientation: IC50 means the point on the concentration scale where inhibition reaches its midpoint. Read a low IC50 as greater potency in that assay.
